Test results taken from patent US9464064B2, “HCV helicase inhibitors and methods of use thereof” (University of Kansas, priority 2011, dated 2016).
Read-outs that look alike come from different tables or passages of the source.

Tests used:
[1] = test system: Huh-7.5 cells; experiment: Cell viability assay ([…]-GLO); assay type: cell-based, human; settings: 10 μM
Outline: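 Viability was read by luminescence, integrated for 1 second, after 30 min at 23° C. in […]-GLO reagent mixed equally with growth medium. Before lysis, Huh-7.5 cells had received compound for 72 h and were rinsed with PBS.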

[2] = test system: MBHA DNA substrate; experiment: Modified FID assay, SYBR Green I; assay type: binding; settings: SYBR Green; for EC50: read-out: FID (SG) EC50 (converted)
Outline: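 Affinity for the MBHA DNA substrate (0.32 μM) estimated by displacement of SYBR Green I (0.68 μM), ethidium bromide omitted. Each compound titrated in triplicate over three independent runs; EC50 from concentration-response fit, reported ± standard deviation.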

[3] = molecular target: T1, HCV NS3 helicase NS3h_1b(con1) (Hepatitis C virus genotype 1b, UniProt Q9WMX2); experiment: biochemical; assay type: biochemical, hepatitis C virus genotype 1b(con1)
T1 construct: truncated C-terminally His-tagged NS3 proteins lacking the N-terminal protease, called NS3h; His-tag (C); made in house
T1 sequence (Q9WMX2 1192-1657): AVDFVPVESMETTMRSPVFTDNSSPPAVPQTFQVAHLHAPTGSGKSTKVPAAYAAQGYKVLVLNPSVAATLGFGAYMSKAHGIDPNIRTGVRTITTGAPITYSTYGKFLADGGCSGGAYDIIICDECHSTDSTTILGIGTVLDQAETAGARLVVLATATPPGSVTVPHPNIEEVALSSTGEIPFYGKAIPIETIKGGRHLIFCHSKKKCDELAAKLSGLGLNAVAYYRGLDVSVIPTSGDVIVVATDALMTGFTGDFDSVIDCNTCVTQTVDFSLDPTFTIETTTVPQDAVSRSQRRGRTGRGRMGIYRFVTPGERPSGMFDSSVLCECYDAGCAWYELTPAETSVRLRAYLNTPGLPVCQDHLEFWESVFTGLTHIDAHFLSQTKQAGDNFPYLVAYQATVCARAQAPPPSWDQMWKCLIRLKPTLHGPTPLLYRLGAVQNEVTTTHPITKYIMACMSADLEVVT
Outline: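 Molecular beacon helicase assay with His-tagged recombinant NS3 and a Cy5/IBRQ-labelled partially duplex DNA substrate (25 bp) or Tye665-labelled RNA substrate (19 bp). Reactions started with 1 mM ATP. Screening read fluorescence before and 30 min after ATP (ex 643/em 670 nm). For IC50, 5% v/v DMSO was present, initial velocities came from first-order decay fits, and a Hill equation was applied.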

[4] = genotype 1b (con1), read-out: Target Potency MBHA (IC50 avg., μM) 1b (con1)
[5] = standard HCV helicase MBHA (Table 9), read-out: DNA Unwinding IC50

Compound | Cell Viability (% @ 10 μM) [1] | FID (SG) % Displaced @ 100 μM [2] | EC50 [2] | IC50 [3, 4] | IC50 [3, 5]
Cc1ccc2nc(-c3ccc(NC(=O)c4ccc(NC(=O)c5ccc(C(F)(F)F)cc5)cc4)cc3)sc2c1S(=O)(=O)O.N [Compound 44] | 97 ± 7% | 41 ± 2% | > 100 µM | 10.4 ± 1.9 µM | 10 ± 2 µM
Cc1ccc2nc(-c3ccc(NC(=O)c4ccc(NC(=O)Nc5ccccc5)cc4)cc3)sc2c1S(=O)(=O)O.N [Compound 45] | 113 ± 4% | 17 ± 2% | > 100 µM | 44 ± 12 µM | 44 ± 12 µM
Cc1ccc2nc(-c3ccc(NC(=O)c4ccc(NC(=O)c5ccc(N)cc5)cc4)cc3)sc2c1S(=O)(=O)O.N [Compound 46] | 112 ± 5% | 21% | > 100 µM | 30 ± 3.8 µM | 29 ± 4 µM
Cc1ccc2nc(-c3ccc4nc(-c5ccc(NC(=O)Nc6ccc(C(F)(F)F)cc6)cc5)sc4c3)sc2c1S(=O)(=O)O.N [Compound 47] | 99 ± 7% | 84 ± 22% | 18 µM | 5.1 ± 3.3 µM | 5 ± 3 µM
Cc1ccc2nc(-c3ccc4nc(-c5ccc(NC(=O)Nc6ccc(F)cc6)cc5)sc4c3)sc2c1S(=O)(=O)O.N [Compound 48] | 93 ± 2% | 58 ± 3% | 74 µM | 7.8 ± 2.2 µM | 8 ± 2 µM
Cc1ccc2nc(-c3ccc4nc(-c5ccc(NC(=O)c6cccc7ccccc67)cc5)sc4c3)sc2c1S(=O)(=O)O.N [Compound 49] | 103 ± 5% | 80 ± 3% | 30 µM | 4.5 ± 0.4 µM | 5 µM
Cc1ccc2nc(-c3ccc4nc(-c5ccc(NC(=S)Nc6ccccc6)cc5)sc4c3)sc2c1S(=O)(=O)O.N [Compound 50] | 98 ± 10% | 76 ± 9% | 30 µM | 9.3 ± 3.8 µM | 9 ± 4 µM
Cc1ccc2nc(-c3ccc(NC(=O)c4ccc(NC(=O)c5ccc(NC(=O)OCC6c7ccccc7-c7ccccc76)cc5)cc4)cc3)sc2c1S(=O)(=O)O.N [Compound 51] | 113 ± 5% | 22% | > 100 µM | 2.5 ± 0.5 µM | 3 µM
Cc1ccc2nc(-c3ccc4nc(-c5ccc(NC(=O)Nc6ccccc6)cc5)sc4c3)sc2c1S(=O)(=O)O.N [Compound 52] | 108 ± 4% | 46 ± 2% | > 100 µM | 4.1 ± 1.3 µM | 4 ± 1 µM
Cc1ccc2nc(-c3ccc4nc(-c5ccc(NCc6ccccc6)cc5)sc4c3)sc2c1S(=O)(=O)O [Compound 53] | 109 ± 8% | 92 ± 4% | 27 µM | 11 ± 1.6 µM | 11 ± 2 µM
Cc1ccc2nc(-c3ccc4nc(-c5ccc(NC(=O)Nc6ccc(Cl)cc6)cc5)sc4c3)sc2c1S(=O)(=O)O [Compound 54] | 98 ± 1% | 74 ± 4% | 8 µM | 3.6 ± 0.9 µM | 4 ± 1 µM
COc1ccc(NC(=O)Nc2ccc(-c3nc4ccc(-c5nc6ccc(C)c(S(=O)(=O)O)c6s5)cc4s3)cc2)cc1 [Compound 55] | 99 ± 9% | 55 ± 6% | 73 µM | 4.8 ± 2 µM | 5 ± 2 µM
